{"source": "patent US20180008573A1", "about": "“METHODS AND COMPOSITIONS FOR REDUCING DAMAGE ASSOCIATED WITH OXIDATIVE PHOSPHORYLATION” (USANA Health Sciences, Inc., priority 2016, published 2018)", "key": {"[1]": {"target": "T1, human PPARα (Homo sapiens, UniProt Q07869)", "T1 construct": "expressed in transfected cells; host or cells: CHO", "T1 sequence (Q07869 239-466 limits assumed)": "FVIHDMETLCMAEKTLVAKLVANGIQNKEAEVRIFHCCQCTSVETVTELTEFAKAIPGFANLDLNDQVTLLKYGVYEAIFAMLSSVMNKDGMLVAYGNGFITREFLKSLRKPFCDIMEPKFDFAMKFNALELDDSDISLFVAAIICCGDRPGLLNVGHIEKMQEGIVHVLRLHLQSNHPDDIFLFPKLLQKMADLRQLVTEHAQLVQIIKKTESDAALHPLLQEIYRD", "test": "PPARα agonist reporter assay (Gal4 hybrid receptor, luciferase, CHO cells)", "type": "cell-based"}, "[2]": {"target": "T2, Nrf2 (Homo sapiens, UniProt Q16236)", "T2 sequence (Q16236 1-605)": "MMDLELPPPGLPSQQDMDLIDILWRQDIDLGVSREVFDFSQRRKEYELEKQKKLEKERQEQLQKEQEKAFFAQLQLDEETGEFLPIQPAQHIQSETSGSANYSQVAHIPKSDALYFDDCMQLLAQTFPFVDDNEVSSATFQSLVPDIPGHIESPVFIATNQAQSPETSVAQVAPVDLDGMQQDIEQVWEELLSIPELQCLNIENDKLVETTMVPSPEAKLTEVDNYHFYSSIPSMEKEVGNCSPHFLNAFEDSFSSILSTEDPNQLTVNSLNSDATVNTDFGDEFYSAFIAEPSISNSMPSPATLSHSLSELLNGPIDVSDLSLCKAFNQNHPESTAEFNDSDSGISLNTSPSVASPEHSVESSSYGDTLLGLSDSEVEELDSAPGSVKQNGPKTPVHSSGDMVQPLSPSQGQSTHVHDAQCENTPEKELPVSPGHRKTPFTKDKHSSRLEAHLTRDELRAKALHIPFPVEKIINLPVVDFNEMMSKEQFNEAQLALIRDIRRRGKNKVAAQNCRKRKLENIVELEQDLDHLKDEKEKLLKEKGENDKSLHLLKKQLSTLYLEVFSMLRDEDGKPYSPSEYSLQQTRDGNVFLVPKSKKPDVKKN", "test": "Nrf2 agonist reporter assay (native receptor, ARE-luciferase, CV1 cells)", "type": "cell-based", "set-up": "comprising either the native receptor (Nrf2 and NF-κB); expressed in transfected cells; host or cells: CV1"}, "[3]": {"test_system": "human NF-κB", "test": "NF-κB antagonist reporter assay (NF-κB GRE-luciferase, HEK293 cells);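 also: reporter cells carry native NF-κB receptor with firefly luciferase under upstream response elements, with a vehicle control included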", "type": "cell-based"}, "[4]": {"test_system": "NF-κB reporter cells", "test": "Live cell multiplex assay in the NF-κB antagonist assay", "type": "cell-based, human", "experimental": "A vehicle control was prepared."}, "[5]": {"target": "T3, human PPARγ (Homo sapiens, UniProt P37231)", "T3 construct": "expressed in transfected cells; host or cells: CHO", "T3 sequence (P37231 238-503 limits assumed)": "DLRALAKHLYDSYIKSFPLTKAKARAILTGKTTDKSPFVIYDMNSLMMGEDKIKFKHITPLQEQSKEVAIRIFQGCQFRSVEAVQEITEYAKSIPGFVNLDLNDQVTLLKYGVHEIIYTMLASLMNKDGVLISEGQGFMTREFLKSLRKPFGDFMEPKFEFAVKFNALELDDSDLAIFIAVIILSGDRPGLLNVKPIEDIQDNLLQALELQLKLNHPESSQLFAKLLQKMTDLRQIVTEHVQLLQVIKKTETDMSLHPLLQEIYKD", "test": "PPARγ agonist reporter assay (Gal4 hybrid receptor, luciferase, CHO cells)", "type": "cell-based"}, "[6]": {"target": "T4, human PPARδ (Homo sapiens, UniProt Q03181)", "T4 construct": "expressed in transfected cells; host or cells: CHO", "T4 sequence (Q03181 211-439 limits assumed)": "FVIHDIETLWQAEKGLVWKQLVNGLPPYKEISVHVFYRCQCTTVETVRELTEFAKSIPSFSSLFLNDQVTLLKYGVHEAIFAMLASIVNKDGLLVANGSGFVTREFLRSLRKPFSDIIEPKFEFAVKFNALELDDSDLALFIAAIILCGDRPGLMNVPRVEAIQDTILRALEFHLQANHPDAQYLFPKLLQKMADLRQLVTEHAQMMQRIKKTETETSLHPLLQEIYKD", "test": "PPARδ agonist reporter assay (Gal4 hybrid receptor, luciferase, CHO cells)", "type": "cell-based"}}, "data": [{"smiles": "COc1ccc([C@@H]2CC(=O)c3c(O)cc(O)cc3O2)cc1O", "note": "[Hesperetin, (S)-2,3-Dihydro-5,7-dihydroxy-2-(3-hydroxy-4-methoxyphenyl)-4H-1-benzopyran-4-one]", "values": [{"measurement": "PPARα Fold-Activation", "setting": "[1]; 0.043 μg/ml active ingredient", "value": 1.4, "unit": "fold"}, {"measurement": "PPARα Fold-Activation", "setting": "[1]; 0.389 μg/ml active ingredient", "value": 1.2, "unit": "fold"}, {"measurement": "PPARα Fold-Activation", "setting": "[1]; 1.167 μg/ml active ingredient", "value": 1.0, "unit": "fold"}, {"measurement": "PPARα Fold-Activation", "setting": "[1]; 3.5 μg/ml active ingredient", "value": 0.79, "unit": "fold"}, {"measurement": "Nrf2 Fold-Activation", "setting": "[2]; 0.043 μg/ml active ingredient", "value": 1.4, "unit": "fold"}, {"measurement": "Nrf2 Fold-Activation", "setting": "[2]; 0.389 μg/ml active ingredient", "value": 1.3, "unit": "fold"}, {"measurement": "Nrf2 Fold-Activation", "setting": "[2]; 1.167 μg/ml active ingredient", "value": 1.5, "unit": "fold"}, {"measurement": "Nrf2 Fold-Activation", "setting": "[2]; 3.5 μg/ml active ingredient", "value": 0.94, "unit": "fold"}, {"measurement": "NF-κB % Inhibition", "setting": "[3]; 0.043 μg/ml active ingredient", "value": "−11", "unit": "%"}, {"measurement": "NF-κB % Inhibition", "setting": "[3]; 0.389 μg/ml active ingredient", "value": "−2.1", "unit": "%"}, {"measurement": "NF-κB % Inhibition", "setting": "[3]; 1.167 μg/ml active ingredient", "value": 14, "unit": "%"}, {"measurement": "NF-κB % Inhibition", "setting": "[3]; 3.5 μg/ml active ingredient", "value": 39, "unit": "%"}, {"measurement": "NF-κB % Live Cell", "setting": "[4]; 0.043 μg/ml active ingredient", "value": 98, "unit": "%"}, {"measurement": "NF-κB % Live Cell", "setting": "[4]; 0.389 μg/ml active ingredient", "value": 99, "unit": "%"}, {"measurement": "NF-κB % Live Cell", "setting": "[4]; 1.167 μg/ml active ingredient", "value": 98, "unit": "%"}, {"measurement": "NF-κB % Live Cell", "setting": "[4]; 3.5 μg/ml active ingredient", "value": 96, "unit": "%"}, {"measurement": "PPARγ Fold-Activation", "setting": "[5]; 0.043 μg/ml active ingredient", "value": 1.0, "unit": "fold"}, {"measurement": "PPARγ Fold-Activation", "setting": "[5]; 0.389 μg/ml active ingredient", "value": 1.1, "unit": "fold"}, {"measurement": "PPARγ Fold-Activation", "setting": "[5]; 1.167 μg/ml active ingredient", "value": 1.1, "unit": "fold"}, {"measurement": "PPARγ Fold-Activation", "setting": "[5]; 3.5 μg/ml active ingredient", "value": 0.55, "unit": "fold"}, {"measurement": "PPARδ Fold-Activation", "setting": "[6]; 0.043 μg/ml active ingredient", "value": 1.1, "unit": "fold"}, {"measurement": "PPARδ Fold-Activation", "setting": "[6]; 0.389 μg/ml active ingredient", "value": 1.0, "unit": "fold"}, {"measurement": "PPARδ Fold-Activation", "setting": "[6]; 1.167 μg/ml active ingredient", "value": 1.1, "unit": "fold"}, {"measurement": "PPARδ Fold-Activation", "setting": "[6]; 3.5 μg/ml active ingredient", "value": 0.89, "unit": "fold"}]}]}
